The values below come from article PMC3883354 (Bioorganic & medicinal chemistry, 2013).

Read-outs that look alike come from different tables or passages of the source.

Assay [1] deals with T1, human GV sPLA2 (Homo sapiens, UniProt P39877).
T1 sequence (P39877 21-138): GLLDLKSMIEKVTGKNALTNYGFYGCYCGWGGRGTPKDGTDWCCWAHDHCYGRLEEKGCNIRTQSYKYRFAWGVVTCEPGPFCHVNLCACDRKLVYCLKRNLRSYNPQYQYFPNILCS
The experiment in a line: mixed micelle-based modified Dole assay, GV sPLA2 inhibition. Format: biochemical. Particulars: 0.091 mole fraction inhibitor in mixed micelles; n = 3.

Assay [2] addresses T2, human GIVA cPLA2 (Homo sapiens, UniProt P47712).
T2 sequence (P47712 1-749): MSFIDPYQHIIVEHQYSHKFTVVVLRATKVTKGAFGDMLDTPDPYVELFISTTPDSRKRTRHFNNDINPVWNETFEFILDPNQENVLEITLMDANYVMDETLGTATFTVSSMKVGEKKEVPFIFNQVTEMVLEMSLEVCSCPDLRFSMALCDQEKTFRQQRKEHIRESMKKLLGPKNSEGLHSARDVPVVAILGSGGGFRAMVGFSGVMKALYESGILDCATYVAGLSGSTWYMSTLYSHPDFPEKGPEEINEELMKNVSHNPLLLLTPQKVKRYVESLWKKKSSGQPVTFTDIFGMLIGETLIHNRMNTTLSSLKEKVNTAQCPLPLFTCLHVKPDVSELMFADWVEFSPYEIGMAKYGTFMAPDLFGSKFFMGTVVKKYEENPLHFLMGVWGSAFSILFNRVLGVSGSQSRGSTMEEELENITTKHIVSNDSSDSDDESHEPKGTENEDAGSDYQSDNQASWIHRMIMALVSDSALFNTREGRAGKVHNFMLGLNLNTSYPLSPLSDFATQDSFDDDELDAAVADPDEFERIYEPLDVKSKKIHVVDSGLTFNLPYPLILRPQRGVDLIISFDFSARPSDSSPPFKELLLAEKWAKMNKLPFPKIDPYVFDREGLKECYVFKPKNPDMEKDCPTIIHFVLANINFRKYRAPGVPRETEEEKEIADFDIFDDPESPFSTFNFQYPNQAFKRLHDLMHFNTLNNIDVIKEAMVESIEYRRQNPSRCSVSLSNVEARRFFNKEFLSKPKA
Description: mixed micelle-based modified Dole assay, GIVA cPLA2 inhibition. Format: biochemical. To be noted: 0.091 mole fraction inhibitor in mixed micelles; n = 3; listed as GK187.

For assay [3], the target named is T2, human GIVA cPLA2. To be noted: 0.091 mole fraction inhibitor; cited from earlier work.
A further assay addresses T3, human GVIA iPLA2 (Homo sapiens, UniProt O60733).
T3 sequence (O60733 1-806): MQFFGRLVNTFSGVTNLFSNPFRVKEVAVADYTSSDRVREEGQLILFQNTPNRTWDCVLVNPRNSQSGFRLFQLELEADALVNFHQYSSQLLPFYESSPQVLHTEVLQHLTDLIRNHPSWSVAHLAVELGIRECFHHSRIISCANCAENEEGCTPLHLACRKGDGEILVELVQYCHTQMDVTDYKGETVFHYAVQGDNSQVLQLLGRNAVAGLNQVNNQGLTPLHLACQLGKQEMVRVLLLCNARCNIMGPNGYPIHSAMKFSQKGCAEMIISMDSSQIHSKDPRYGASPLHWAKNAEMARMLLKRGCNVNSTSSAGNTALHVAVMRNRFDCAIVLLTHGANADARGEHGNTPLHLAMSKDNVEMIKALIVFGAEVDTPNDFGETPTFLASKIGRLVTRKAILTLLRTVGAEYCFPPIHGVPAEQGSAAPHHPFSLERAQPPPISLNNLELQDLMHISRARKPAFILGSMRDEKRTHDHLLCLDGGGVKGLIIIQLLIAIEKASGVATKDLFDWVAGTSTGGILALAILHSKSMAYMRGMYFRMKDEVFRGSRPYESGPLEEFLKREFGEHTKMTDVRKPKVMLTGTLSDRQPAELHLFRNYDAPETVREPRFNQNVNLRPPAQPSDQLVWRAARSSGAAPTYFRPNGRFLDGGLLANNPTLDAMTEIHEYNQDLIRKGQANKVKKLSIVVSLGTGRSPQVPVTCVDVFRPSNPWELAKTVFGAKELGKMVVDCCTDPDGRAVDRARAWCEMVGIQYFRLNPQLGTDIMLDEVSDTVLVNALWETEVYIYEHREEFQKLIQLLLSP
Particulars: cited from earlier work.

For assay [4], the target named is T1, human GV sPLA2. Particulars: 0.091 mole fraction inhibitor; cited from earlier work.

As to `COc1ccc(CCCCC(=O)C(F)(F)C(F)(F)F)cc1` [6d, 1,1,1,2,2-Pentafluoro-7-(4-methoxyphenyl)heptan-3-one], the “GV sPLA2 % Inhibition at 0.091” value at human GV sPLA2 [1] is reported as “no significant inhibition”. Moreover, the “GIVA cPLA2 % Inhibition at 0.091” value on human GIVA cPLA2 [2] is listed as “no significant inhibition”.
In the case of `O=C(CCCCc1ccccc1)C(F)(F)C(F)(F)F` [FKGK11], the “GIVA cPLA2 % Inhibition at 0.091” value on human GIVA cPLA2 [3] is given as “N.D. (N.D. signifies compounds with less than 25% inhibition (or no detectable inhibition))”. Further, the “GVIA iPLA2 % Inhibition at 0.091” value at human GVIA iPLA2 (0.091 mole fraction inhibitor) is 99.4%. Also, the “GVIA iPLA2 XI(50)” value at human GVIA iPLA2 (mole fraction of inhibitor for 50% inhibition) is 0.0014 ± 0.0001 mole fraction. Besides, on human GV sPLA2 [4], the “GV sPLA2 % Inhibition at 0.091” value was 28.0%.
